Reference: patent publication EP3623009A1, “MODULATION OF TRF1 FOR BRAIN CANCER TREATMENT” (Fundación del Sector Público Estatal Centro Nacional de …, priority 2018, dated 2020)
“Also recorded” adds a separate entry of the source.

Key:
h676 GSCs [1] = test: Sphere formation assay in h676 patient-derived GSCs; assay type: cell-based, human; conditions: for diameter of spheres / number of spheres: h676 patient-derived primary GSCs, compared to untreated controls; for sphere formation (dose-response): h676 GSCs, treated 7 days
Protocol: (§1) Spheres were dissociated into single cells and seeded at a density of 50, 100, 200 and 400 cells/well in a 96 well plate. Neurosphere number was assessed after 7 days. Pictures were taken using Nikon Eclipse Ti-U microscope and neurosphere diameter was measured using NIS Elements BR software.

U251 cells = test: Sphere formation assay in U251 cells cultured with NSC media; assay type: cell-based, human; conditions: seven days, compared to DMSO
Protocol: as §1
Finally, the present inventors checked if the three chemical compounds had the ability to reduce stemness in these cells. They cultured U251 cells with NSC media in order to obtain a suspension culture enriched in stem cells. The inventors performed a sphere formation assay with these cells treated with ETP-47228, ETP-47037 and ETP-50946 or DMSO for seven days. […] Of note, all these effects recapitulated what the present inventors observed with Trf1 genetic downregulation (See 2.2).

h543 GSCs [2] = test: Sphere formation assay in h543 patient-derived GSCs; assay type: cell-based, human; conditions: for diameter of spheres / number of spheres: h543 patient-derived primary GSCs, compared to untreated controls; for sphere formation (dose-response): h543 GSCs, treated 7 days
Protocol: as §1

[3] = tested on: K-Ras^G12V-induced lung tumors; conditions: Trf1 chemical inhibition; García-Beccaria et al. 2015; cited from earlier work
p-AKT = p-AKT activation (p-AKT/AKT ratio, western blot) in h676 GSCs; assay type: cell-based, human; conditions: 24h at 1 µM
Protocol: In order to check whether the novel compounds act independently of this pathway, the present inventors treated the cells for 24h at 1 µM concentration and checked p-AKT activation.

h676 GSCs [4] = test: Drug combination (synergy) sphere study in h676 GSCs; assay type: cell-based, human; conditions: combinatorial matrix, spheres after 7 days, combination index
Protocol: Using this concentration as a reference point, the present inventors designed a combinatorial matrix using different concentrations of the compounds (e.g. 2x GI50, GI50 and ½ GI50) to study all the possible combinations. Combination index is calculated to establish if the combination is synergistic, additive or antagonistic (Fig. 50A).

h676 GSCs [5] = test: Subcutaneous xenograft of h676 patient-derived GSCs in nude mice; assay type: in vivo
Protocol: (§2) h676 and h543 patient-derived GSCs were dissociated using a 200 µl pipet and resuspended in NeuroCult medium and matrigel in a 1:1 ratio in a concentration of 1000 cell/µl. Nude mice (athymic Nude-Foxn1^nu/nu from Harlan) were injected subcutaneously with 100 µl of the cell preparation. ETP-47037 (or vehicle) was orally administrated at a concentration of 75 mg/kg 5 days per week (see also section 8), starting one week after cell injection. The vehicle consisted in 10% N-methyl-2-pyrrolidone (NMP, Sigma Aldrich) and 90% poly ethylene glycol (PEG, Sigma Aldrich). Mice were weighted and tumors were measured every 2-4 days. Tumor area was determined by the following equation: A = π * (a/2) * (b/2), were a and b are tumor length and width respectively.
(§3) For oral administration, ETP-47037 was dissolved in 10% N-methyl-2-pyrrolidone (NMP, Sigma Aldrich) and 90% polyethylene glycol (PEG, Sigma Aldrich) at a concentration of 75 mg/kg.
Next, the present inventors set to address whether TRF1 chemical inhibition was able to block tumor growth in vivo. […] Thus, the two independent primary GSCs (h676 and h543) were injected subcutaneously into nude mice. One week after GSC injection, mice received oral administration of the vehicle (NMP 10%, PEG 90%) as placebo or the ETP-47037 TRF1 inhibitor 5 days/week, every week until human endpoint, and tumors were continuously followed-up by caliper measurements (Fig. 42A).

[6] = Brain blood barrier crossing (statement)
h543 GSCs [7] = test: Subcutaneous xenograft of h543 patient-derived GSCs in nude mice; assay type: in vivo; conditions: oral 75 mg/kg 5 days/week from one week after injection, caliper, vs vehicle
Protocol: as §2, §3
Next, the present inventors set to address whether TRF1 chemical inhibition was able to block tumor growth in vivo. […] Thus, the two independent primary GSCs (h676 and h543) were injected subcutaneously into nude mice. […]

[8] = Tolerability and pathology of xenograft mice after long-term treatment; assay type: in vivo, nude mice
Protocol: as §2, with “respectively. […] Table1. Mice pathologies after long-term treatment with vehicle or ETP-47037” for “respectively.”

[9] = h676 xenograft, post-mortem, vs placebo

| Compound | diameter of spheres (h676 GSCs [1]) | number of spheres (h676 GSCs [1]) | diameter of neurospheres (U251 cells) | number of neurospheres (U251 cells) | diameter of spheres (h543 GSCs [2]) | number of spheres (h543 GSCs [2]) | dependence on p-AKT (p-AKT) | synergic effect with the PI3Ki (ETP-47037) (h676 GSCs [4]) | also measured |
| --- | --- | --- | --- | --- | --- | --- | --- | --- | --- |
| Cc1cnc2c(N3CCOCC3)nc(-c3ccc(NC(=O)Nc4ccc(C(=O)N5CCN(C)CC5)cc4)cc3)cn12 [ETP-47228] | significant drastic reduction | significant drastic reduction | strong reduction | strong reduction | significant drastic reduction | significant drastic reduction |  |  | growth of already established lung adenocarcinomas [3]: effectively impair the growth; mouse and tissue viability [3]: without affecting mouse and tissue viability |
| Nc1ccn([C@@H]2O[C@H](CO)[C@@H](O)C2(F)F)c(=O)n1 [Gemcitabine, reference compound] |  |  |  |  |  |  | act independently of p-AKT | significant synergic effect | sphere formation (dose-response) (h676 GSCs [1]): most potent compounds; sphere formation (dose-response) (h543 GSCs [2]): most potent compounds |
| C[C@@H](Oc1cc(-n2cnc3ccc(CN4CCN(C)CC4)cc32)sc1C(N)=O)c1ccccc1C(F)(F)F [GSK461364] |  |  |  |  |  |  | p-AKT dependent |  |  |
| CS(=O)(=O)N1CCN(Cc2cc3c(N4CCOCC4)nc(-c4cnc(N)nc4)cn3n2)CC1 [ETP-47037] | significant drastic reduction | significant drastic reduction | strong reduction | strong reduction | significant drastic reduction | significant drastic reduction |  |  | proliferation marker Ki67 (h676 GSCs [5]; GSCs derived xenograft tumors, Ki67-positive cells per field, vs vehicle): reduces proliferation; γH2AX DNA damage marker (h676 GSCs [5]; GSCs derived xenograft tumors, γH2AX-positive cells per field, vs vehicle): induces DNA damage; decrease of TRF1 protein levels (h676 GSCs [5]; h676 xenograft tumors, immunofluorescence, vs placebo): 80%; tumor areas (h676 GSCs [5]; h676 xenograft, oral 75 mg/kg 5 days/week from one week after injection, caliper, vs vehicle): drastic reduction; tumor size (h676 GSCs [5]; [9]): striking decrease; tumor weight (h676 GSCs [5]; [9]): striking decrease; histological analysis of the tumors (h676 GSCs [5]; xenograft tumors after treatment): decreased cellularity in the tumors, together with necrotic areas, apoptotic bodies, compacted chromatin and fragmented DNA; crossing the brain blood barrier [6]: not crossing the brain blood barrier; growth of already established lung adenocarcinomas [3]: effectively impair the growth; mouse and tissue viability [3]: without affecting mouse and tissue viability; tumor areas (h543 GSCs [7]): drastic reduction; Mice pathologies after long-term treatment ([8]; one cell per mouse (Mice 1 to 4)): Mice 1: dermatitis, mild widening of lymphatic vessels in intestine; also recorded: Mice 2: dermatitis; also recorded: Mice 3: dermatitis; also recorded: Mice 4: dermatitis; signs of sickness or morbidity ([8]; treated cohorts compared to the placebo group): did not detect any signs of sickness or morbidity |
| O=C(Nc1ccc2[nH]nc(-c3ccncc3)c2c1)[C@@H]1CCN(CC(=O)N2CCN(c3ccc(-c4ncccn4)cc3)CC2)C1 [SCH772984] |  |  |  |  |  |  | act independently of p-AKT | significant synergic effect |  |
| COc1cc(Nc2ncc3c(n2)-c2ccc(Cl)cc2C(c2c(F)cccc2OC)=NC3)ccc1C(=O)O [Alisertib] |  |  |  |  |  |  | act independently of p-AKT |  |  |
| CC(=O)O[C@@]12CO[C@@H]1C[C@H](O)[C@@]1(C)C(=O)[C@H](O)C3=C(C)[C@@H](OC(=O)[C@H](O)[C@@H](NC(=O)OC(C)(C)C)c4ccccc4)C[C@@](O)([C@@H](OC(=O)c4ccccc4)[C@H]21)C3(C)C [Docetaxel, reference compound] |  |  |  |  |  |  | act independently of p-AKT | significant synergic effect | sphere formation (dose-response) (h676 GSCs [1]): most potent compounds; sphere formation (dose-response) (h543 GSCs [2]): most potent compounds |
| NC(Cc1ccccc1)c1csc(Nc2ncccn2)n1 (centres unmarked) [ETP-50946] | significant drastic reduction | significant drastic reduction | strong reduction | strong reduction | significant drastic reduction | significant drastic reduction |  |  |  |
| COc1ccc(-c2ccc3c(N4CCOCC4)nc(N4C[C@@H](C)O[C@@H](C)C4)nc3n2)cc1CO [KU-0063794] |  |  |  |  |  |  | p-AKT dependent |  |  |
| CN1CC[C@H](c2c(O)cc(O)c3c(=O)cc(-c4ccccc4Cl)oc23)[C@H](O)C1 [Flavopiridol] |  |  |  |  |  |  | act independently of p-AKT |  |  |
